Results on six compounds are retold here after patent publication US8044034B2, “Nanoparticle derivatives of gemcitabine” (Centre National de la Recherche Scientifique (C.N.R.S.), priority 2004, dated 2011).

In one series the test system is KB3-1. In words: Cytotoxic activity, MTT test, 72 hours exposure. It is filed as cell-based, human. As to conditions: for IC50: KB3-1 cells, 72 hours, MTT test, concentration at which 50% of the cells are alive, read-out: CI50 (μM) after 72 hours KB3-1. The procedure: (§1) The cytotoxic activity of SQgem was evaluated on two human tumoral cell lines (KB3-1, cancer of the naso-pharynx and MCF-7, breast cancer) by exposure to SQgem for 72 hours, and compared with the activity of gemcitabine.
(§2) The lines were maintained in DMEM medium with 10% foetal calf serum, 2 mM glutamine, 50 mg/l antibiotics, at 37° C., 5% CO2, 95% humidity. The cells were seeded onto a 96 well plate in an amount of 1×10^4/well; after 24 hours, different dilutions of gemcitabine and SQgem particle were added and incubated for 72 hours. Cellular viability was then determined by the MTT test. The results are expressed as CI50, which is the concentration of the molecule at which 50% of the cells are alive.
A general note: Tetrazolium dyes change colour on reduction, which living cells bring about.

Another series has as its system MCF-7. As to the kind of experiment: Cytotoxic activity, MTT test, 72 hours exposure. The note with it: concentration at which 50% of the cells are alive, read-out: CI50 (μM) after 72 hours MCF-7. It is filed as cell-based, human. As for the experimental part: as §1, §2
Another series deals with two cell lines. In words: Cytotoxic activity at different times in the presence and absence of inserts (MTT test). As to conditions: 100 μM SQgem nanoparticles, inserts 0.02 μm, n=3. It is filed as cell-based, human. The procedure:
The cytotoxic activity of SQgem at different times was also determined by incubating 100 μM SQgem nanoparticles on two cell lines in the presence and absence of inserts (0.02 μm) (MTT test) (n=3).

The nature of series [1]: Nanoparticle size by quasi-elastic light diffusion (Coulter N4MD nanosizer). The class given is physicochemical. The procedure: The size of the colloidal particles obtained in example 1 were monitored by quasi-elastic light diffusion using a nanosizer (Coulter® N4MD, Coulter Electronics, Hialeah, USA).
The colloidal suspensions were diluted in MilliQ® water so that the number of particles per ml was suitable for the measuring device.

Series [2] in a line: Surface tension at constant surface area (Wilhemy blade tensometer). It is filed as physicochemical. The note with it: aqueous solution with 10% ethanol. As for the experimental part:
The surface tension of an aqueous SQgem solution was measured at constant surface area at different concentrations using a Wilhemy blade tensometer and compared with that of a solution of gemcitabine (Gem) and 4-(N)-stearoylgemcitabine (C18gem) (Myhren F et al, Gemcitabine derivatives, US patent no. 2002/0042391).
To prepare the various dilutions of SQgem and C18gem, it was necessary to start from an ethanolic solution; the percentage of ethanol in the final solution was 10% (the presence of ethanol reduces the surface tension of water from 72 mN/m to about 50 mN/m).

The mark [3] stands for this setting: concentration in final suspension 1 mg/ml.
[4] abbreviates: concentration in final suspension 2 mg/ml.
The mark [5] stands for this setting: concentration in final suspension 4 mg/ml.

Read-outs that look alike come from different tables or passages of the source.

For `CC(C)=CCCC(C)=CCCC(C)=CCCC=C(C)CCC=C(C)CCC(=O)Nc1ccn([C@@H]2O[C@H](CO)[C@@H](O)C2(F)F)c(=O)n1` [SQgem, 4-(N)-squalenoylgemcitabine], the IC50 in the series on KB3-1 is 8.8 ± 4.1 µM; with MCF-7 (MCF-7 cells), 4.8 ± 3.9 µM. Also, the “times more cytotoxic than the gemcitabine molecule” value with KB3-1 (from CI50 on KB3-1 and MCF-7, 72 hours) is listed as “five to seven times more toxic”. The “anti-cancer activity with inserts with respect to cytotoxicity tests in the absence of an insert” value in the series on two cell lines was “not reduced”. Besides, the “Mean hydrodynamic diameter (nm)” value in series [1] (setting [3]) was 126.2 nm; in series [1] (setting [4]), 150.4 nm; in series [1] (setting [5]) it was 171.3 nm. The Polydispersity index in series [1] (setting [3]) is reported as 0.26; in series [1] (setting [4]) it was 0.09; in series [1] (setting [5]), 0.08. Besides, in series [2], the “concentration at which the surface tension is reduced (nanoparticle formation)” value turned out to be 4 µM.
Consider `CC(C)=CCCC(C)=CCCC(C)=CCCC=C(C)CCC=C(C)CCC(=O)Nc1ccn([C@@H]2O[C@H](CO)[C@@H](O)[C@@H]2O)c(=O)n1` [SQara-C, 4-(N)-squalenoylcytarabine], for which, in series [1] (setting [3]), the “Mean hydrodynamic diameter (nm)” value is on record as 110.4±34.1 nm and the Polydispersity index was 0.168.
For the compound `Nc1ccn([C@@H]2O[C@H](CO)[C@@H](O)C2(F)F)c(=O)n1` [Gemcitabine, 2′,2′-difluoro-2′-deoxycytidine], the IC50 is 50.8 ± 49.8 µM in the series on KB3-1 (Homo sapiens, KB 3-1) and 29 ± 13.9 µM in the series on MCF-7 (Homo sapiens, MCF7, MCF-7 cells).
In the case of `CC(C)=CCCC(C)=CCCC(C)=CCCC=C(C)CCC=C(C)CCC(=O)OC[C@@H]1CC[C@H](n2cnc3c(=O)[nH]cnc32)O1` [5′-squalenoyl-didanosine], in series [1] (concentration not given), the “Mean hydrodynamic diameter / size of the nanoparticles” value was 152 nm and the Polydispersity index is 0.1.
Take `CC(C)=CCCC(C)=CCCC(C)=CCCC=C(C)CCC=C(C)CCC(=O)OC[C@H]1O[C@@H](n2cc(C)c(=O)[nH]c2=O)C[C@@H]1N=[N+]=[N-]` [5′-squalenoyl-zidovudine, 3-azido-5-(5-methyl-2,4-dioxo-3,4-dihydro-2H-pyrimidin-1-yl)-tetrahydro-furan-2-yl-methyl (2S,3S,5R)-4,8,13,17,21-pentamethyl-docosa-4,8,12,16,20-pentaenoate]: the “Mean hydrodynamic diameter / size of the nanoparticles” value in series [1] (concentration not given) is 150-170 nm.
With 4-(N)-squalenoyl acyclovir [SQACV], in series [1] (setting [3]), the “Mean hydrodynamic diameter (nm)” value turned out to be 217.5 ± 37.9 nm and the Polydispersity index is 0.038.
